Activity calls are given as the source filed them. The calls are words filed in the database; no cut-off is given here.
Experiments:
[1] = Antioxidant activity against AAPH-induced hemolysis in human erythrocytes assessed as inhibition time; type: functional, Erythrocyte
[2] = Antioxidant activity against AAPH-induced DNA damage assessed as inhibition period for TBARS production; type: functional
[3] = system: Radical scavenging activity; assay: Antioxidant activity assessed as DPPH free radical scavenging activity at 50 uM; type: functional
[4] = Antioxidant activity assessed as ABTS free radical scavenging activity at 50 uM; type: functional
[5] = Antioxidant activity against AAPH-induced methyl linoleate oxidation at 50 uM after 120 mins by beta-carotene bleaching test; type: functional
[6] = Antioxidant activity against AAPH-induced DNA damage assessed as TBARS production; type: functional
[7] = Antioxidant activity against protection of autooxidation of linoleic acid at 50 uM by beta-carotene bleaching test; type: functional
[8] = Antioxidant activity against singlet oxygen radicals assessed as decrease of 4-nitroso-N,N-dimethylaniline decolorization after 40 mins by quenching assay; type: functional
[9] = Antioxidant activity assessed as galvinoxyl free radical scavenging activity at 25 uM; type: functional
[10] = Antioxidant activity against AAPH-induced methyl linoleate oxidation assessed as inhibition period at 50 uM by beta-carotene bleaching test; type: functional
[11] = system: Erythrocyte; assay: Antioxidant activity in human erythrocytes assessed as inhibition of hemin-induced hemolysis at up to 120 uM after 30 mins; type: functional, cell-based
[12] = Antioxidant activity against Cu2+/GSH-induced oxidation of DNA assessed as TBARS production at 0.2 mM after 30 mins; type: functional
[13] = Antioxidant activity against hydroxyl radical-induced DNA damage assessed as TBARS production at 0.2 mM after 30 mins; type: functional
[14] = Antioxidant activity against singlet oxygen radicals assessed as decrease of 4-nitroso-N,N-dimethylaniline decolorization at 250 uM after 40 mins by quenching assay; type: functional
[15] = system: Erythrocyte; assay: Antioxidant activity in human erythrocytes assessed as inhibition of hemin-induced hemolysis after 30 mins; type: functional, cell-based
[16] = Antioxidant activity against AAPH-induced hemolysis in human erythrocytes assessed as inhibition time at 18 uM; type: functional, Erythrocyte
[17] = system: Erythrocyte; assay: Antioxidant activity against AAPH-induced hemolysis in human erythrocytes at 54 uM; type: functional, cell-based
[18] = Antioxidant activity against singlet oxygen radicals assessed as decrease of 4-nitroso-N,N-dimethylaniline decolorization at 150 uM after 40 mins by quenching assay; type: functional
[19] = Antioxidant activity against AAPH-induced hemolysis in human erythrocytes assessed as inhibition time at 36 uM; type: functional, Erythrocyte
[20] = Antioxidant activity against singlet oxygen radicals assessed as decrease of 4-nitroso-N,N-dimethylaniline decolorization at up to 240 uM after 40 mins by quenching assay; type: functional

Q: With `COc1cc(/C=C/C(=O)CC(=O)/C=C/c2ccc(O)c(OC)c2)ccc1O` [CURCUMIN] as the molecule, how does the Time [1] read?
A: 3.45 min

Q: What about the TIME [2] of the same molecule?
A: 0.0405 h

Q: What does the source list for `COc1cc(/C=C/C(=O)CC(C)=O)ccc1O`?
A: Activity [3]: 22.3 µM/min; Time [1]: 2.38 min; Activity [4]: 6.04 µM/min; Activity ([5]; TDE = time-dependent effect): tde; Activity [6]: Active; Activity [7]: Active; Activity [8]: Dose-dependent effect; TIME [2]: 0.0237 h; Activity [9]: 0.13 µM/min; TIME [10]: 3.68 h; Activity [11]: inactive; Activity [12]: Active; Activity [13]: Active

Q: Which results are given for `CCOC(=O)/C(=C/c1ccc(O)c(OC)c1)C(C)=O`?
A: Activity [14]: Active; Activity [3]: 7.54 µM/min; Time [1]: 1.83 min; Activity [4]: 1.78 µM/min; Activity [5]: inactive; Activity [6]: Active; Activity [7]: inactive; Activity [8]: Dose-dependent effect; TIME [2]: 0.0137 h; Activity [15]: Dose-dependent effect; Activity [9]: 0.02 µM/min; Activity [13]: Active

Q: For `COc1cc(/C=C/C(=O)CC(C)=O)ccc1OCc1ccccc1`, which Time [1] is on record?
A: 3.3 min

Q: What about the Time [16] of the same molecule?
A: 80 min

Q: What about the Activity [5] of the same molecule?
A: inactive

Q: And the Activity [6]?
A: Active

Q: And the Activity [7]?
A: inactive

Q: What about the Activity [8] of the same molecule?
A: Dose-dependent effect

Q: And the Activity [17]?
A: Active

Q: And the Activity [11]?
A: inactive

Q: And the Activity [18]?
A: Active

Q: What about the Time [19] of the same molecule?
A: 56 min

Q: What about the Activity [13] of the same molecule?
A: Active

Q: For `COc1cc(CCC(=O)CC(C)=O)ccc1O`, which Activity [3] is on record?
A: 16.9 µM/min

Q: What about the Time [1] of the same molecule?
A: 3.48 min

Q: And the Activity [4]?
A: 3.85 µM/min

Q: What about the Activity ([5]; TDE = time-dependent effect) of the same molecule?
A: tde

Q: And the Activity [6]?
A: Active

Q: And the Activity [7]?
A: inactive

Q: What about the Activity [8] of the same molecule?
A: Dose-dependent effect

Q: What about the TIME [2] of the same molecule?
A: 0.0318 h

Q: And the Activity [15]?
A: Dose-dependent effect

Q: What about the Activity [9] of the same molecule?
A: 0.06 µM/min

Q: And the TIME [10]?
A: 2.67 h

Q: And the Activity [13]?
A: Active

Q: With `CC(=O)CC(=O)/C=C/c1ccc(O)c(O)c1` as the molecule, how does the Activity [3] read?
A: 41.2 µM/min

Q: And the Time [1]?
A: 3.92 min

Q: And the Activity [4]?
A: 7.56 µM/min

Q: What about the Activity ([5]; TDE = time-dependent effect) of the same molecule?
A: tde

Q: And the Activity [6]?
A: Active

Q: What about the Activity [7] of the same molecule?
A: Active

Q: And the Activity [8]?
A: Dose-dependent effect

Q: And the TIME [2]?
A: 0.0428 h

Q: And the Activity [15]?
A: Dose-dependent effect

Q: What about the Activity [9] of the same molecule?
A: 0.08 µM/min

Q: What about the TIME [10] of the same molecule?
A: 3.73 h

Q: And the Activity [12]?
A: Active

Q: And the Activity [13]?
A: Active

Q: What does the source list for `COc1cc(/C=C/C(O)CC(C)O)ccc1O` (stereo not given)?
A: Activity [3]: 8.57 µM/min; Time [1]: 2.05 min; Activity [20]: inactive; Activity [4]: 6.26 µM/min; Activity ([5]; TDE = time-dependent effect): tde; Activity [6]: Active; Activity [7]: Active; TIME [2]: 0.0185 h; Activity [9]: 0.13 µM/min; TIME [10]: 1.95 h; Activity [11]: inactive; Activity [13]: Active

From ChEMBL document CHEMBL1759874, “Feruloylacetone as the model compound of half-curcumin: synthesis and antioxidant properties” (2011)
